Test results taken from patent US20250081967A1, “PESTICIDALLY ACTIVE HETEROCYCLIC DERIVATIVES WITH SULFOXIMINE CONTAINING SUBSTITUENTS” (SYNGENTA CROP PROTECTION AG, priority 2021, published 2025).

Columns and labels:
Format in all cases: in vivo
Diabrotica balteata = assay: Activity against Diabrotica balteata (corn root worm), maize sprouts; conditions: for percent effect (mortality or growth inhibition) at 200 ppm: 96 h, application rate 200 ppm, L2 larvae, 4 days after infestation, read-out: effect in at least one of the two categories (mortality or growth inhibition)
Protocol: Example B3: Activity Against Diabrotica Balteata (Corn Root Worm)
Maize sprouts placed onto an agar layer in 24-well microtiter plates were treated with aqueous test solutions prepared from 10′000 ppm DMSO stock solutions by spraying. After drying, the plates were infested with L2 larvae (6 to 10 per well). The samples were assessed for mortality and growth inhibition in comparison to untreated samples 4 days after infestation.

Chilo suppressalis = assay: Activity against Chilo suppressalis (striped rice stemborer), artificial diet; conditions: 144 h, application rate 200 ppm, L2 larvae, 6 days after infestation
Protocol: Example B11: Activity Against Chilo suppressalis (Striped Rice Stemborer)
24-well microtiter plates with artificial diet were treated with aqueous test solutions prepared from 10′000 ppm DMSO stock solutions by pipetting. After drying, the plates were infested with L2 larvae (6-8 per well). The samples were assessed for mortality, anti-feeding effect, and growth inhibition in comparison to untreated samples 6 days after infestation. Control of Chilo suppressalis by a test sample is given when at least one of the categories mortality, anti-feedant effect, and growth inhibition is higher than the untreated sample.

Bemisia tabaci = assay: Activity against Bemisia tabaci (cotton white fly), cotton leaf discs; conditions: foliar, 144 h, application rate 200 ppm, adult white flies, 6 days after incubation
Protocol: Example B6: Activity Against Bemisia tabaci (Cotton White Fly)
Cotton leaf discs were placed on agar in 24-well microtiter plates and sprayed with aqueous test solutions prepared from 10′000 ppm DMSO stock solutions. After drying the leaf discs were infested with adult white flies. The samples were checked for mortality 6 days after incubation.

Euschistus heros = assay: Activity against Euschistus heros (neotropical brown stink bug), soybean leaf; conditions: 120 h, application rate 200 ppm, N-2 nymphs, 5 days after infestation, read-out: effect in at least one of the two categories (mortality or growth inhibition)
Protocol: Example B7: Activity Against Euschistus heros (Neotropical Brown Stink Bug)
Soybean leaf on agar in 24-well microtiter plates were sprayed with aqueous test solutions prepared from 10′000 ppm DMSO stock solutions. After drying the leaf were infested with N-2 nymphs. The samples were assessed for mortality and growth inhibition in comparison to untreated samples 5 days after infestation.

Spodoptera littoralis = assay: Activity against Spodoptera littoralis (Egyptian cotton leaf worm), cotton leaf discs; conditions: foliar, 72 h, application rate 200 ppm, L1 larvae, 3 days after infestation, read-out: control (mortality, anti-feeding effect or growth inhibition)
In short: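 Cotton leaf discs on agar sprayed with aqueous test solutions made from 10′000 ppm DMSO stocks, dried, then infested with five L1 larvae. Mortality, anti-feeding and growth inhibition scored versus untreated samples 3 days after infestation; control given when any category exceeds untreated.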

Myzus persicae [1] = assay: Activity against Myzus persicae (green peach aphid), feeding/contact activity, sunflower leaf discs; conditions: Myzus persicae, foliar, 144 h, application rate 200 ppm; feeding/contact; 6 days after infestation
Protocol: Example B4: Activity Against Myzus persicae (Green Peach Aphid) Feeding/Contact Activity
Sunflower leaf discs were placed on agar in a 24-well microtiter plate and sprayed with aqueous test solutions prepared from 10′000 ppm DMSO stock solutions. After drying, the leaf discs were infested with an aphid population of mixed ages. The samples were assessed for mortality 6 days after infestation.

Plutella xylostella = assay: Activity against Plutella xylostella (diamond back moth), artificial diet, L2 larvae; conditions: 120 h, application rate 200 ppm, 5 days after infestation, read-out: effect in at least one of the two categories (mortality or growth inhibition)
Protocol: Example B2: Activity Against Plutella xylostella (Diamond Back Moth)
24-well microtiter plates with artificial diet were treated with aqueous test solutions prepared from 10′000 ppm DMSO stock solutions by pipetting. After drying, the plates were infested with L2 larvae (10 to 15 per well). The samples were assessed for mortality and growth inhibition in comparison to untreated samples 5 days after infestation.

Myzus persicae [2] = assay: Activity against Myzus persicae (green peach aphid), systemic activity, pea seedlings; conditions: Myzus persicae, 144 h, test rate 24 ppm; systemic; 6 days after placing seedlings in test solutions
Protocol: Example B5: Activity Against Myzus persicae (Green Peach Aphid) Systemic Activity
Roots of pea seedlings infested with an aphid population of mixed ages were placed directly in the aqueous test solutions prepared from 10′000 DMSO stock solutions. The samples were assessed for mortality 6 days after placing seedlings in test solutions.

SMILES | Mortality (%) (Diabrotica balteata; concentration 50 ppm) | percent control (mortality, anti-feedant effect or growth inhibition) at 200 ppm (Chilo suppressalis) [%] | mortality at 200 ppm (Bemisia tabaci) [%] | percent effect (mortality or growth inhibition) at 200 ppm (Euschistus heros) [%] | percent effect (mortality or growth inhibition) at 200 ppm (Diabrotica balteata) [%] | percent control (mortality, anti-feedant effect or growth inhibition) at 200 ppm (Spodoptera littoralis) [%] | mortality at 200 ppm (Myzus persicae [1]) [%] | percent effect (mortality or growth inhibition) at 200 ppm (Plutella xylostella) [%] | mortality at 24 ppm (Myzus persicae [2]) [%]
CCn1c(C(F)(F)F)cc2nc(-c3ncc(C4(C#N)CC4)cc3S(=N)(=O)CC)n(C)c2c1=O (single isomer, unassigned) [Compound P14-B, 1-[6-[5-ethyl-3-methyl-4-oxo-6-(trifluoromethyl)imidazo[4,5-c]pyridin-2-yl]-5-(ethylsulfonimidoyl)-3-pyridyl]cyclopropanecarbonitrile] | 50 | ≥ 80 |  |  |  |  |  |  | 
CCn1c(C(F)(F)F)cc2nc(-c3ncc(OC(C)(C)C#N)cc3S(=N)(=O)CC)n(C)c2c1=O (racemic) [Compound P19, 2-[[6-[5-ethyl-3-methyl-4-oxo-6-(trifluoromethyl)imidazo[4,5-c]pyridin-2-yl]-5-(ethylsulfonimidoyl)-3-pyridyl]oxy]-2-methyl-propanenitrile] |  |  | ≥ 80 | ≥ 80 | ≥ 80 | ≥ 80 | ≥ 80 | ≥ 80 | ≥ 80
CCS(=N)(=O)c1cc(C2(C#N)CC2)cnc1-c1nc2cc(C(F)(F)F)n(OC)c(=O)c2n1C (racemic) [Compound P8, 1-[5-(ethylsulfonimidoyl)-6-[5-methoxy-3-methyl-4-oxo-6-(trifluoromethyl)imidazo[4,5-c]pyridin-2-yl]-3-pyridyl]cyclopropanecarbonitrile] |  |  | ≥ 80 | ≥ 80 | ≥ 80 | ≥ 80 | ≥ 80 | ≥ 80 | ≥ 80
CCS(=N)(=O)c1cc(OC(C)(C)C#N)c(C)nc1-c1nc2cc(C(F)(F)F)cnc2n1C (racemic) [Compound P5, 2-[[5-(ethylsulfonimidoyl)-2-methyl-6-[3-methyl-6-(trifluoromethyl)imidazo[4,5-b]pyridin-2-yl]-3-pyridyl]oxy]-2-methyl-propanenitrile] |  |  | ≥ 80 | ≥ 80 | ≥ 80 | ≥ 80 | ≥ 80 | ≥ 80 | ≥ 80
CCS(=N)(=O)c1cc(C(C)(C)C#N)cnc1-c1nc2cc(C(F)(F)F)cnc2n1C (single isomer, unassigned) [Compound P12-B, 2-[5-(ethylsulfonimidoyl)-6-[3-methyl-6-(trifluoromethyl)imidazo[4,5-b]pyridin-2-yl]-3-pyridyl]-2-methyl-propanenitrile] |  | ≥ 80 |  |  |  |  |  |  | 
CCn1c(C(F)(F)F)cc2nc(-c3ncc(C4(C#N)CC4)cc3S(=N)(=O)CC)n(C)c2c1=O (racemic) [Compound P14, 1-[6-[5-ethyl-3-methyl-4-oxo-6-(trifluoromethyl)imidazo[4,5-c]pyridin-2-yl]-5-(ethylsulfonimidoyl)-3-pyridyl]cyclopropanecarbonitrile] |  |  | ≥ 80 | ≥ 80 | ≥ 80 | ≥ 80 | ≥ 80 | ≥ 80 | ≥ 80
CCS(=N)(=O)c1cc(OC(C)(C)C#N)cnc1-c1nc2cc(C(F)(F)F)cnc2n1C (racemic) [Compound P9, 2-[[5-(ethylsulfonimidoyl)-6-[3-methyl-6-(trifluoromethyl)imidazo[4,5-b]pyridin-2-yl]-3-pyridyl]oxy]-2-methyl-propanenitrile] |  |  | ≥ 80 | ≥ 80 | ≥ 80 | ≥ 80 | ≥ 80 | ≥ 80 | ≥ 80
